Measurements taken from ChEMBL document CHEMBL3421625, “Discovery and optimization of novel antagonists to the human neurokinin-3 receptor for the treatment of sex-hormone disorders (Part I)” (J Med Chem, 2015).
In brackets after ≈: the same amount, converted by molar mass.

Assays:
in vivo [1] = details: Sprague-Dawley, rat, iv, 1 mg/kg
[2] = Apparent permeability across basolateral to apical side in human Caco2 cells in presence of 0.1% bovine serum albumin; details: Caco-2
Cytochrome P450 2C19 = Cytochrome P450 2C19 (Homo sapiens, UniProt P33261); test: Inhibition of CYP2C19 (unknown origin) by luciferase reporter assay in presence of NADPH regeneration system
Sequence of Cytochrome P450 2C19 (P33261 whole entry): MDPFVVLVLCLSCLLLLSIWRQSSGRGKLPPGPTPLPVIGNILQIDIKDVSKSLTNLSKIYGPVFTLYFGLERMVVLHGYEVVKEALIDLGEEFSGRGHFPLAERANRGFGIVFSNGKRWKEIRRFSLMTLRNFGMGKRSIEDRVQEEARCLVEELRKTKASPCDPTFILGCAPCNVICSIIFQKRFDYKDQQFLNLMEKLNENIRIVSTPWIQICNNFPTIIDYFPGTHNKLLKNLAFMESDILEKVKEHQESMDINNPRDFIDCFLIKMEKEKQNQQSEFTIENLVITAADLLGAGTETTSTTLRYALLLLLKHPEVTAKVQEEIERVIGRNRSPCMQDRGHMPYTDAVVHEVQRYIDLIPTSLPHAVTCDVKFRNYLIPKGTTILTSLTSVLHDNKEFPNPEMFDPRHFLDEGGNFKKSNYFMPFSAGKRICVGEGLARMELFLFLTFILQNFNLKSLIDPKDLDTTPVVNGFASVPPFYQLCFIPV

Cytochrome P450 2C9 = Cytochrome P450 2C9 (Homo sapiens, UniProt P11712); test: Inhibition of CYP2C9 (unknown origin) by luciferase reporter assay in presence of NADPH regeneration system; type: ADME
Sequence of Cytochrome P450 2C9 (P11712 whole entry): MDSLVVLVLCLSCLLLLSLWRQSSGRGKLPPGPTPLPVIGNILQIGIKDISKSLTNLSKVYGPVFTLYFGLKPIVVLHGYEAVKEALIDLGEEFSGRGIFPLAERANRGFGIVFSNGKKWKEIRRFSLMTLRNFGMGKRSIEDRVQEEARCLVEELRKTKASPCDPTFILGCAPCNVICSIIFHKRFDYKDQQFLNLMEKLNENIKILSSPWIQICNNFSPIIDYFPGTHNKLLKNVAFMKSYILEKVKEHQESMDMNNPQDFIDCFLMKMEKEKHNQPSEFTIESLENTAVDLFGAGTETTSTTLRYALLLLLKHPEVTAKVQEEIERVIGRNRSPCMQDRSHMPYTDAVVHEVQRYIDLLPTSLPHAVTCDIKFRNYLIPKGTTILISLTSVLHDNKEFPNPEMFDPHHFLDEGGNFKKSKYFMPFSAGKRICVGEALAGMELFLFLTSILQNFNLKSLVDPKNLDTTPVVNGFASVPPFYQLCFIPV

Neuromedin-K receptor [3] = biological target: T1, Neuromedin-K receptor (Rattus norvegicus, UniProt P16177)
T1 sequence (P16177 whole entry): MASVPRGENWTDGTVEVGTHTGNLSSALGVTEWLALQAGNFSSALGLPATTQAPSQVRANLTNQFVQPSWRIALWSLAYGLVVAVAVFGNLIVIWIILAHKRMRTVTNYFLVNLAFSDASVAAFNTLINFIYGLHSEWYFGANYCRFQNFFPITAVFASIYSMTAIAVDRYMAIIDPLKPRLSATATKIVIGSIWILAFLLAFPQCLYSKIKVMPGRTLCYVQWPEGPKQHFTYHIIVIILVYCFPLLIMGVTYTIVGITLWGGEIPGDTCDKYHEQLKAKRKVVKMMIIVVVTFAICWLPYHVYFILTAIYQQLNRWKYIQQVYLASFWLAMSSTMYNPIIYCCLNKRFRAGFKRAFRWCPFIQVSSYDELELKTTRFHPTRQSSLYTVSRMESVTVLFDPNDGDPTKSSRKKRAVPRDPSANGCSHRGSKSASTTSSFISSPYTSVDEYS
Description: Displacement of [3H]-SB222200 from rat NK3R after 90 mins by scintillation counting analysis

Cytochrome P450 1A2 = biological target: T2, Cytochrome P450 1A2 (Homo sapiens, UniProt P05177); test: Inhibition of CYP1A2 (unknown origin) by luciferase reporter assay in presence of NADPH regeneration system; type: ADME
T2 sequence (P05177 whole entry): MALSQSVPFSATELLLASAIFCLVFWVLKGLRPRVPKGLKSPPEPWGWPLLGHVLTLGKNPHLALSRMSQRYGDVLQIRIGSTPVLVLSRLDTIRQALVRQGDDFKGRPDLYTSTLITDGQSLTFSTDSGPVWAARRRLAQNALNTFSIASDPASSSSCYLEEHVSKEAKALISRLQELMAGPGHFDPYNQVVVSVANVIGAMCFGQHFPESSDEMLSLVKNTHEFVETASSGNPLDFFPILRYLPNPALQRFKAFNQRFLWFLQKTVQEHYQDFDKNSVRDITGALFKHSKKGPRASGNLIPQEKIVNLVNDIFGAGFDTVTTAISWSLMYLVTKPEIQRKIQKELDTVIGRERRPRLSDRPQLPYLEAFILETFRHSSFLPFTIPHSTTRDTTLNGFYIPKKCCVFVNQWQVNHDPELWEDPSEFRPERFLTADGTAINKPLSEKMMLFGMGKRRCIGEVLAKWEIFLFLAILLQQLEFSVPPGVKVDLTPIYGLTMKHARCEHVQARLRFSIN

[4] = Fraction unbound in rat brain at 5 uM after 4 hrs by equilibrium dialysis method; type: ADME, tissue-based
Neuromedin-K receptor [5] = biological target: T3, Neuromedin-K receptor (Homo sapiens, UniProt P29371); test: biochemical
T3 sequence (P29371 whole entry): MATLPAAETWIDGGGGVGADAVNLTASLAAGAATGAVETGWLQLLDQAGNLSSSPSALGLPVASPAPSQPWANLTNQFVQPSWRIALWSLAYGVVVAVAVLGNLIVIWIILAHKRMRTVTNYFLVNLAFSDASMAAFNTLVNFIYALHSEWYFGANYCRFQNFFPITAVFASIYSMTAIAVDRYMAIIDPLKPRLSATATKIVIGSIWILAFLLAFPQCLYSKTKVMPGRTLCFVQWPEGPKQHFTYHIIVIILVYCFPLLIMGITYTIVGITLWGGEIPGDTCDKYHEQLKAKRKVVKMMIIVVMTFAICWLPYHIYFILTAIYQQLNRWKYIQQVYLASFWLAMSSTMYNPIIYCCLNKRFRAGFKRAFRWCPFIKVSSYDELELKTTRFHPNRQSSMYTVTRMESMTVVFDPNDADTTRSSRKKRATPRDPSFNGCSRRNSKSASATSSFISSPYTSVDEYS
Description: Displacement of [3H]-SB222200 from recombinant human NK3R expressed in CHO cell membranes after 90 mins by scintillation counting analysis

[6] = Solubility of the compound in PBS buffer at pH 7.4 by shake-flask method; type: physicochemical
[7] = Total systemic clearance in Sprague-Dawley rat at 1 mg/kg, iv by LC-MS/MS analysis; type: ADME, organism-based; set-up: dose 1 mg/kg, route intravenous; details: in vivo
Neuromedin-K receptor [8] = biological target: T3, Neuromedin-K receptor
Rattus norvegicus [9] = test: Unbound AUC in Sprague-Dawley rat at 1 mg/kg, iv by LC-MS/MS analysis; type: ADME, organism-based; set-up: dose 1 mg/kg, route intravenous; details: in vivo
NK-3 receptor = biological target: T4, NK-3 receptor (Macaca mulatta, UniProt Q2WGM0)
T4 sequence (Q2WGM0 whole entry): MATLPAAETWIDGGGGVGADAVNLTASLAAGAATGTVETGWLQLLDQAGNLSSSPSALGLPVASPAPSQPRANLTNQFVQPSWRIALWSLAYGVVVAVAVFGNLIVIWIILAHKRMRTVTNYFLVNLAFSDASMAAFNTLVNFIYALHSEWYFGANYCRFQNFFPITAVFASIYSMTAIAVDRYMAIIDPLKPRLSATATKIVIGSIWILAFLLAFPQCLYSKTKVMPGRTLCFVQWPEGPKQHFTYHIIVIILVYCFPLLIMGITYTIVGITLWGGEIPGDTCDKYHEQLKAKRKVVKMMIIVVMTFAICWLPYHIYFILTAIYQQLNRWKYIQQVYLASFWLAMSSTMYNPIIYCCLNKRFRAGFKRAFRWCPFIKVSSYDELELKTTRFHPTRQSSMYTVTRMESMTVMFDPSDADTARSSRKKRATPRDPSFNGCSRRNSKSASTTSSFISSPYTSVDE
Description: Displacement of [3H]-SB222200 from monkey NK3R after 90 mins by scintillation counting analysis

in vivo [10] = details: Sprague-Dawley, rat, po, 3 mg/kg
[11] = Lipophilicity, log D of the compound at pH 7.4; type: physicochemical; details: buffer, read-out: logD
[12] = biological target: Kappa-type opioid receptor (Homo sapiens) (UniProt P41145); test: Inhibition of KOR (unknown origin) at 10 uM relative to control
Sequence of Kappa-type opioid receptor (Homo sapiens) (P41145 whole entry): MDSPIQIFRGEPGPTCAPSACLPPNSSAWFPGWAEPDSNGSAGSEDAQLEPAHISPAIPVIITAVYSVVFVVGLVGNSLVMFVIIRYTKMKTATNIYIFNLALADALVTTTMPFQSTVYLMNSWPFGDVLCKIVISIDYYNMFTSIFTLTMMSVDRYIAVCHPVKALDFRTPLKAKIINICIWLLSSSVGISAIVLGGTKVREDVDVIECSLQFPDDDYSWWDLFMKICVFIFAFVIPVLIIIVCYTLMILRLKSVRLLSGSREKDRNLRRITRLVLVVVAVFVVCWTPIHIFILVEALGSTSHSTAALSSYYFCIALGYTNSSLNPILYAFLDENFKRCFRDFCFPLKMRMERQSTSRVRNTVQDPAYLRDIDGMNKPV

[13] = Fraction unbound in rat plasma at 5 uM after 4 hrs by equilibrium dialysis method; type: ADME, cell-free
Cytochrome P450 3A4 = Cytochrome P450 3A4 (Homo sapiens, UniProt P08684); test: Inhibition of CYP3A4 (unknown origin) by luciferase reporter assay in presence of NADPH regeneration system; type: ADME
Sequence of Cytochrome P450 3A4 (P08684 whole entry): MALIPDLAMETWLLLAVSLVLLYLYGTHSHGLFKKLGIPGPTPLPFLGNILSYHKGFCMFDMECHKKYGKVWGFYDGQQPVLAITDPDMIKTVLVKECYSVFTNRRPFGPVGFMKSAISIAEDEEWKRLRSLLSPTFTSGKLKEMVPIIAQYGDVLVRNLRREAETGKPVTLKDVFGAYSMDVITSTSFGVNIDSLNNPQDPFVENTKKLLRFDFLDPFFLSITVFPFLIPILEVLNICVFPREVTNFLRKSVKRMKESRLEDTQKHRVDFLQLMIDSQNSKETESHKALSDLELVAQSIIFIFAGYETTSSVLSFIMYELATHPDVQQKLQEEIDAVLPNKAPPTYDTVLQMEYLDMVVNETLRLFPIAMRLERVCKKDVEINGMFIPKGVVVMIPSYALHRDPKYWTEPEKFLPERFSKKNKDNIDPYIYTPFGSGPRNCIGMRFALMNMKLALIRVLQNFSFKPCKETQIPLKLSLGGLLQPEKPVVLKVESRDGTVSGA

Cytochrome P450 2D6 = Cytochrome P450 2D6 (Homo sapiens, UniProt P10635); test: Inhibition of CYP2D6 (unknown origin) by luciferase reporter assay in presence of NADPH regeneration system; type: ADME
Sequence of Cytochrome P450 2D6 (P10635 whole entry): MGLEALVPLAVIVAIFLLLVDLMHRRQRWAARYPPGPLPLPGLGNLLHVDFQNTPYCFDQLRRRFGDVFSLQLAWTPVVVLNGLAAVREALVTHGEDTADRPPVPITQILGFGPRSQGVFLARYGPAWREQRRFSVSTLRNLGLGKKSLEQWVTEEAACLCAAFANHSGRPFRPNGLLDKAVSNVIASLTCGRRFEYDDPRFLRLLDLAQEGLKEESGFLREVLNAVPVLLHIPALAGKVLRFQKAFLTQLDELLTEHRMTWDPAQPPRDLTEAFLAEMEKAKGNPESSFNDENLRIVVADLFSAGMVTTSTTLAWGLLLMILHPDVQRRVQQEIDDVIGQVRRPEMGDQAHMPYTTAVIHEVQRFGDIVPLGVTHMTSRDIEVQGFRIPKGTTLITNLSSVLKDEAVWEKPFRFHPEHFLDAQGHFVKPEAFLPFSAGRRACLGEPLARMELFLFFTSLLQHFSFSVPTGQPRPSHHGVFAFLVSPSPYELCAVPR

[14] = Ratio of unbound drug level in brain to plasma in Sprague-Dawley rat at 1 mg/kg, iv measured at 10 mins; details: brain and plasma
in vivo [15] = details: Sprague-Dawley, rat, po, 3 mg/kg; remark: listed apart in the source
Rattus norvegicus [16] = test: Unbound Cmax in Sprague-Dawley rat at 3 mg/kg, po by LC-MS/MS analysis; type: ADME, organism-based; set-up: dose 3 mg/kg, route oral; details: in vivo
[17] = Ratio of unbound drug level in brain to plasma in Sprague-Dawley rat at 1 mg/kg, iv measured at 60 mins; details: brain and plasma
Rattus norvegicus [18] = test: Unbound AUC in Sprague-Dawley rat at 3 mg/kg, po by LC-MS/MS analysis; type: ADME, organism-based; set-up: dose 3 mg/kg, route oral; details: in vivo
in vivo [19] = details: Sprague-Dawley, rat, iv, 1 mg/kg; remark: listed apart in the source
Description: Volume of distribution at steady state in Sprague-Dawley rat at 1 mg/kg, iv by LC-MS/MS analysis

[20] = Apparent permeability across apical to basolateral side in human Caco2 cells in presence of 0.1% bovine serum albumin; details: Caco-2
[21] = biological target: Voltage-gated inwardly rectifying potassium channel KCNH2 (Homo sapiens, UniProt Q12809)
Sequence of Voltage-gated inwardly rectifying potassium channel KCNH2 (Q12809 whole entry): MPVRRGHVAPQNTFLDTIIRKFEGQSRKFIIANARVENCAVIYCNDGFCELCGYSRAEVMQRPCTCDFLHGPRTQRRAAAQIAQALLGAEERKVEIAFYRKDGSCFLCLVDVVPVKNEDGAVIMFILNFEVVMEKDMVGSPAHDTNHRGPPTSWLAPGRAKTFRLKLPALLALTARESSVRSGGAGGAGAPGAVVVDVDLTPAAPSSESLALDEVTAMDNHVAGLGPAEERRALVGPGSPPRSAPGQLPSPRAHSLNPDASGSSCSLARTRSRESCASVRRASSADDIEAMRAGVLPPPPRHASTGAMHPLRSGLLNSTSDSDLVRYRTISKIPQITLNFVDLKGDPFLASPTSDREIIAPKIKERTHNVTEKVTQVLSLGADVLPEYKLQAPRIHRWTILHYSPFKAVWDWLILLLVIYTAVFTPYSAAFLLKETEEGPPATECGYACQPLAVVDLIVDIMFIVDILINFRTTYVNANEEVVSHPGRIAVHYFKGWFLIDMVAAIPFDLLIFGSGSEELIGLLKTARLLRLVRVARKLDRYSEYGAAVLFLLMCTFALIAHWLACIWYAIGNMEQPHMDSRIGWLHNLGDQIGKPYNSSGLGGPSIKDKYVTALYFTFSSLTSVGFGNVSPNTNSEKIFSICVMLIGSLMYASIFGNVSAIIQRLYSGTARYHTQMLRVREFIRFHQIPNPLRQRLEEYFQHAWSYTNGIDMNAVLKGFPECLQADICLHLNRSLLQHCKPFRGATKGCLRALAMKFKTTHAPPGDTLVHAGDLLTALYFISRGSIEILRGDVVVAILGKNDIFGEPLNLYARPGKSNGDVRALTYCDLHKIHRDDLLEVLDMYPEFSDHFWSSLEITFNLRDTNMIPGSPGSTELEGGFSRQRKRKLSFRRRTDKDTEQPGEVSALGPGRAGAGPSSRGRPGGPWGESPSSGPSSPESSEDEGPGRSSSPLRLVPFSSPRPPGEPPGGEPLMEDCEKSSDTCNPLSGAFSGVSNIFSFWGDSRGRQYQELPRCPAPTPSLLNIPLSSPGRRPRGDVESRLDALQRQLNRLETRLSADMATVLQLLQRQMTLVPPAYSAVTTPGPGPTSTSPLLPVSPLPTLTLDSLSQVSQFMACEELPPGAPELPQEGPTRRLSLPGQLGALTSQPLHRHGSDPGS
Description: Inhibition of human ERG expressed in HEK293 cells after 5 mins by patch-clamp assay

[22] = Half life in rat liver microsomes; type: ADME
Substance-K receptor = biological target: T5, Substance-K receptor (Homo sapiens, UniProt P21452); test: Displacement of [125I]NKA from human NK2R expressed in CHO cell membranes after 90 mins by scintillation counting analysis
T5 sequence (P21452 whole entry): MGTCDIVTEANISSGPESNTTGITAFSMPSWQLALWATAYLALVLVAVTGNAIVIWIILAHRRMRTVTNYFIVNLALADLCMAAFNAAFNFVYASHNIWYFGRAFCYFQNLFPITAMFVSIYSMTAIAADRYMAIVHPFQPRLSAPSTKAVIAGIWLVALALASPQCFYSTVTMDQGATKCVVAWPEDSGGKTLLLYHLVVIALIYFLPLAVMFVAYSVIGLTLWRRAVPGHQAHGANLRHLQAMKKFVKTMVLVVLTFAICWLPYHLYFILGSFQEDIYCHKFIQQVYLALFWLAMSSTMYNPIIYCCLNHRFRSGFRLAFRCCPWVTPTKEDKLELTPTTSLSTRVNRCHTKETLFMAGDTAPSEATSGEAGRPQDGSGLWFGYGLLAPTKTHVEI

IC50 (Cytochrome P450 2C19) [µM]	IC50 (Cytochrome P450 2C9) [µM]	IC50 (Cytochrome P450 1A2) [µM]	Ki (Neuromedin-K receptor [5]) [nM]	solubility thermodynamic [6] [µM]	IC50 (Neuromedin-K receptor [8]) [nM]	logD [11]	IC50 (Cytochrome P450 2D6) [µM]	SMILES	IC50 (Cytochrome P450 3A4) [µM]	other results
15	19	19	79.4	172 (≈ 70.1 µg/mL)	79.4	2.9	> 100	Cc1nc(-c2nnc3n2CCN(C(=O)c2ccc(-c4cccs4)cc2)C3)cs1	30	IC50 [21]: 27 µM
< 5	< 5	< 5	76	1.3 (≈ 0.523 µg/mL)	109	3.4	< 5	N#CC(c1ccccn1)c1ccnc(N2CCN(C(=O)c3ccc(F)cc3)CC2)n1 (stereo unspecified)		half-life [22]: 13 min
								CSCC[C@H](NC(=O)[C@H](CC(C)C)NC(=O)CNC(=O)[C@H](Cc1ccccc1)N(C)C(=O)[C@H](Cc1ccccc1)NC(=O)[C@H](CC(=O)O)NC(=O)CCC(=O)O)C(N)=O [SENKTIDE]		Ki (Substance-K receptor): > 10 µM

SMILES	IC50 (Cytochrome P450 2C19) [µM]	IC50 (Cytochrome P450 2C9) [µM]	IC50 (Cytochrome P450 1A2) [µM]	Ki (Neuromedin-K receptor [5]) [nM]	solubility thermodynamic [6] [µM]	IC50 (Neuromedin-K receptor [8]) [nM]	logD [11]	IC50 (Cytochrome P450 2D6) [µM]	IC50 (Cytochrome P450 3A4) [µM]	other results
Cc1noc(-c2nnc3n2CCN(C(=O)c2ccc(-c4cccs4)cc2)[C@@H]3C)n1	54	40	32	25.1	185 (≈ 75.2 µg/mL)	25.1	2.2	> 100	55	half-life (in vivo [1]): 62 min; Papp B→A [2]: 60.4 ×10⁻⁶ cm/s; Ki (Neuromedin-K receptor [3]): 116 nM; fraction unbound at 4 h, 5 µM [4]: 0.084; clearance [7]: 11.3 mL/min/kg; fAUC (Rattus norvegicus [9]): 23.3 µM·min; Ki (NK-3 receptor): 25.1 nM; Tmax (in vivo [10]): 35 min; inhibition [12]: 23%; fraction unbound at 4 h, 5 µM [13]: 0.108; Kp uu at 10 min [14]: 0.6; bioavailability (in vivo [15]): 66%; fCmax (Rattus norvegicus [16]): 272 nM; Kp uu at 1 h [17]: 0.4; fAUC (Rattus norvegicus [18]): 46.3 µM·min; Vd (in vivo [19]): 1 L/kg; Papp A→B [20]: 57.4 ×10⁻⁶ cm/s
